Results published in patent US20240216401A1, “COMBINATION THERAPY BY USING AKR1C3-ACTIVATED COMPOUND WITH IMMUNE CHECKPOINT INHIBITOR” (OBI Pharma, Inc., priority 2021, published 2024).
“And” between values parts separate entries of the source, which are not always exact repeats. Identical values can stand only once.

System: CTL cells (CD45^+CD8^+ T cells) in tumor-infiltrating lymphocytes
Experiment: Example 2: flow cytometry, percentage of CTL cells in TILs
Type: in vivo, Mus musculus
Description: Mice were sacrificed by CO2 euthanasia at the end of the study duration, and the connective tissue around tumor was resected. The tumor samples were then weighed and cut equally into three sections if the tumor weight over 400 mg. The tumor tissue was prepared for the isolation of tumor-infiltrating lymphocytes (TILs). The rest of one section was fixed in 10% formaldehyde and embedded in paraffin; the other was stored at a temperature below −70° C.
The tumor samples were dissected into smaller fragments using scalpels and then digested with a cocktail of collagenase, DNase I, and Hyaluronidase (Collagenase #C5138, DNase I #D5025, Hyaluronidase #H6254, SigmaAldrich) for at least 2 hours.
Cells were stained with the fluorescently conjugated surface antibodies and incubated for 30 minutes at 4° C., and then resuspended in staining buffer for flow cytometric analysis. Flow cytometry was done using a Navios EX Flow Cytometer (Beckman Coulter). Data were analyzed using the Kaluza Analysis Software (Beckman Coulter).

C[C@H](OP(=O)(N1CC1)N1CC1)c1ccc([N+](=O)[O-])c(Oc2cccc(C(=O)N(C)C)c2)c1 [OBI-3424, (S)-1-(3-(3-N,N-dimethylaminocarbonyl)phenoxyl-4-mtrophenyl)-1-ethyl-N,N′-bis(ethylene)phosphoramidate]
CD69^+ CTL cells (CD45^+ CD8^+CD69^+) Total % (G2: 0.3 mg/kg, group mean): 20.23%
CTL cells (CD45^+CD8^+) CD45^+ Gated % (G2: 0.3 mg/kg, group mean): 60.54%
CTL cells (CD45^+CD8^+) Cell count (×10^5) (G2: 0.3 mg/kg, group mean): 55.19 ×10^5
CTL cells (CD45^+CD8^+) Total % (G2: 0.3 mg/kg, group mean): 26.12%
Granzyme B^+ CTL cells (CD45^+ CD8^+GrB+) CTL Gated % (G2: 0.3 mg/kg, group mean): 90.76%
Granzyme B^+ CTL cells (CD45^+ CD8^+GrB+) Cell count (×10^5) (G2: 0.3 mg/kg, group mean): 61.54 ×10^5
Granzyme B^+ CTL cells (CD45^+ CD8^+GrB+) Total % (G2: 0.3 mg/kg, group mean): 26.31%
IFN-γ^+ CTL cells (CD45^+ CD8^+ IFN-γ^+) CTL Gated % (G2: 0.3 mg/kg, group mean): 0.89%
IFN-γ^+ CTL cells (CD45^+ CD8^+ IFN-γ^+) Cell count (×10^5) (G2: 0.3 mg/kg, group mean): 0.47 ×10^5
IFN-γ^+ CTL cells (CD45^+ CD8^+ IFN-γ^+) Total % (G2: 0.3 mg/kg, group mean): 0.20%
PD-1^+ CTL cells (CD45^+CD8^+ PD-1^+) CTL Gated % (G2: 0.3 mg/kg, group mean): 75.96%
PD-1^+ CTL cells (CD45^+CD8^+ PD-1^+) Cell count (×10^5) (G2: 0.3 mg/kg, group mean): 42.52 ×10^5
PD-1^+ CTL cells (CD45^+CD8^+ PD-1^+) Total % (G2: 0.3 mg/kg, group mean): 18.42%
CD25^+ CTL cells (CD45^+ CD8^+CD25^+) Cell count (×10^5) (G2: 0.3 mg/kg, individual mice): 1.91 ×10^5 and 3.89 ×10^5 and 7.72 ×10^5 and 0.35 ×10^5 and 3.13 ×10^5 and 0.58 ×10^5
CD25^+ CTL cells (CD45^+CD8^+ CD25^+) CTL Gated % (G2: 0.3 mg/kg, individual mice): 11.79% and 5.81% and 3.87% and 3.93% and 4.86% and 3.31%
CD25^+ CTL cells (CD45^+CD8^+ CD25^+) Total % (G2: 0.3 mg/kg, individual mice): 0.98% and 1.90% and 1.43% and 1.62% and 1.27% and 0.80%
CD69^+ CTL cells (CD45^+ CD8^+CD69^+) CTL Gated % (G2: 0.3 mg/kg, individual mice): 62.46% and 73.01% and 61.79% and 85.14% and 68.69% and 67.19%
CD69^+ CTL cells (CD45^+ CD8^+CD69^+) Cell count (×10^5) (G2: 0.3 mg/kg, individual mice): 10.13 ×10^5 and 48.79 ×10^5 and 123.34 ×10^5 and 7.53 ×10^5 and 44.17 ×10^5 and 11.85 ×10^5
CD69^+ CTL cells (CD45^+ CD8^+CD69^+) Total % (G2: 0.3 mg/kg, individual mice): 5.21% and 23.86% and 22.84% and 35.19% and 17.92% and 16.34%
CTL cells (CD45^+CD8^+) CD45^+ Gated % (G2: 0.3 mg/kg, individual mice): 43.92% and 72.25% and 73.64% and 66.97% and 60.34% and 46.12%
CTL cells (CD45^+CD8^+) Cell count (×10^5) (G2: 0.3 mg/kg, individual mice): 15.97 ×10^5 and 54.79 ×10^5 and 171.72 ×10^5 and 9.75 ×10^5 and 66.26 ×10^5 and 12.67 ×10^5
CTL cells (CD45^+CD8^+) Total % (G2: 0.3 mg/kg, individual mice): 8.21% and 26.79% and 31.80% and 45.54% and 26.88% and 17.47%
Granzyme B^+ CTL cells (CD45^+ CD8^+GrB+) CTL Gated % (G2: 0.3 mg/kg, individual mice): 66.16% and 97.44% and 95.50% and 85.88% and 99.84% and 99.74%
Granzyme B^+ CTL cells (CD45^+ CD8^+GrB+) Cell count (×10^5) (G2: 0.3 mg/kg, individual mice): 11.61 ×10^5 and 69.08 ×10^5 and 196.18 ×10^5 and 6.59 ×10^5 and 69.09 ×10^5 and 16.66 ×10^5
Granzyme B^+ CTL cells (CD45^+ CD8^+GrB+) Total % (G2: 0.3 mg/kg, individual mice): 5.97% and 33.78% and 36.33% and 30.78% and 28.03% and 22.98%
IFN-γ^+ CTL cells (CD45^+ CD8^+ IFN-γ^+) CTL Gated % (G2: 0.3 mg/kg, individual mice): 2.04% and 0.66% and 0.54% and 0.36% and 1.10% and 0.64%
IFN-γ^+ CTL cells (CD45^+ CD8^+ IFN-γ^+) Cell count (×10^5) (G2: 0.3 mg/kg, individual mice): 0.35 ×10^5 and 0.47 ×10^5 and 1.08 ×10^5 and 0.03 ×10^5 and 0.76 ×10^5 and 0.11 ×10^5
IFN-γ^+ CTL cells (CD45^+ CD8^+ IFN-γ^+) Total % (G2: 0.3 mg/kg, individual mice): 0.18% and 0.23% and 0.20% and 0.13% and 0.31% and 0.15%
PD-1^+ CTL cells (CD45^+CD8^+ PD-1^+) CTL Gated % (G2: 0.3 mg/kg, individual mice): 95.86% and 68.60% and 72.47% and 49.67% and 96.18% and 73.00%
PD-1^+ CTL cells (CD45^+CD8^+ PD-1^+) Cell count (×10^5) (G2: 0.3 mg/kg, individual mice): 15.31 ×10^5 and 37.59 ×10^5 and 124.42 ×10^5 and 4.84 ×10^5 and 63.74 ×10^5 and 9.24 ×10^5
PD-1^+ CTL cells (CD45^+CD8^+ PD-1^+) Total % (G2: 0.3 mg/kg, individual mice): 7.87% and 18.38% and 23.04% and 22.62% and 25.86% and 12.75%
CD25^+ CTL cells (CD45^+ CD8^+CD25^+) Cell count (×10^5) (G3: 1 mg/kg, group mean): 1.33 ×10^5
CD25^+ CTL cells (CD45^+CD8^+ CD25^+) CTL Gated % (G3: 1 mg/kg, group mean): 5.25%
CD25^+ CTL cells (CD45^+CD8^+ CD25^+) Total % (G3: 1 mg/kg, group mean): 1.71%
CD69^+ CTL cells (CD45^+ CD8^+CD69^+) CTL Gated % (G3: 1 mg/kg, group mean): 71.92%
CD69^+ CTL cells (CD45^+ CD8^+CD69^+) Cell count (×10^5) (G3: 1 mg/kg, group mean): 18.65 ×10^5
CD69^+ CTL cells (CD45^+ CD8^+CD69^+) Total % (G3: 1 mg/kg, group mean): 25.02%
CTL cells (CD45^+CD8^+) CD45^+ Gated % (G3: 1 mg/kg, group mean): 55.81%
CTL cells (CD45^+CD8^+) Cell count (×10^5) (G3: 1 mg/kg, group mean): 25.42 ×10^5
CTL cells (CD45^+CD8^+) Total % (G3: 1 mg/kg, group mean): 33.50%
Granzyme B^+ CTL cells (CD45^+ CD8^+GrB+) CTL Gated % (G3: 1 mg/kg, group mean): 88.17%
Granzyme B^+ CTL cells (CD45^+ CD8^+GrB+) Cell count (×10^5) (G3: 1 mg/kg, group mean): 23.13 ×10^5
Granzyme B^+ CTL cells (CD45^+ CD8^+GrB+) Total % (G3: 1 mg/kg, group mean): 30.40%
IFN-γ^+ CTL cells (CD45^+ CD8^+ IFN-γ^+) CTL Gated % (G3: 1 mg/kg, group mean): 0.63%
IFN-γ^+ CTL cells (CD45^+ CD8^+ IFN-γ^+) Cell count (×10^5) (G3: 1 mg/kg, group mean): 0.15 ×10^5
IFN-γ^+ CTL cells (CD45^+ CD8^+ IFN-γ^+) Total % (G3: 1 mg/kg, group mean): 0.21%
PD-1^+ CTL cells (CD45^+CD8^+ PD-1^+) CTL Gated % (G3: 1 mg/kg, group mean): 75.93%
PD-1^+ CTL cells (CD45^+CD8^+ PD-1^+) Cell count (×10^5) (G3: 1 mg/kg, group mean): 19.17 ×10^5
PD-1^+ CTL cells (CD45^+CD8^+ PD-1^+) Total % (G3: 1 mg/kg, group mean): 24.78%
CD25^+ CTL cells (CD45^+ CD8^+CD25^+) Cell count (×10^5) (G3: 1 mg/kg, individual mice): 0.43 ×10^5 and 1.29 ×10^5 and 0.89 ×10^5 and 1.55 ×10^5 and 1.91 ×10^5 and 1.90 ×10^5
CD25^+ CTL cells (CD45^+CD8^+ CD25^+) CTL Gated % (G3: 1 mg/kg, individual mice): 3.38% and 2.85% and 4.07% and 7.29% and 6.05% and 7.84%
CD25^+ CTL cells (CD45^+CD8^+ CD25^+) Total % (G3: 1 mg/kg, individual mice): 1.49% and 1.02% and 1.26% and 1.57% and 2.57% and 2.34%
CD69^+ CTL cells (CD45^+ CD8^+CD69^+) CTL Gated % (G3: 1 mg/kg, individual mice): 80.80% and 70.50% and 83.69% and 59.32% and 76.33% and 60.89%
CD69^+ CTL cells (CD45^+ CD8^+CD69^+) Cell count (×10^5) (G3: 1 mg/kg, individual mice): 10.34 ×10^5 and 31.84 ×10^5 and 18.33 ×10^5 and 12.61 ×10^5 and 24.09 ×10^5 and 14.69 ×10^5
CD69^+ CTL cells (CD45^+ CD8^+CD69^+) Total % (G3: 1 mg/kg, individual mice): 35.67% and 25.23% and 25.96% and 12.76% and 32.38% and 18.14%
CTL cells (CD45^+CD8^+) CD45^+ Gated % (G3: 1 mg/kg, individual mice): 66.02% and 53.39% and 62.97% and 38.03% and 65.33% and 49.11%
CTL cells (CD45^+CD8^+) Cell count (×10^5) (G3: 1 mg/kg, individual mice): 12.68 ×10^5 and 40.30 ×10^5 and 21.83 ×10^5 and 22.61 ×10^5 and 32.02 ×10^5 and 23.10 ×10^5
CTL cells (CD45^+CD8^+) Total % (G3: 1 mg/kg, individual mice): 31.93% and 30.92% and 22.88% and 43.04% and 28.52%
Granzyme B^+ CTL cells (CD45^+ CD8^+GrB+) CTL Gated % (G3: 1 mg/kg, individual mice): 90.46% and 99.18% and 89.16% and 96.01% and 95.94% and 58.25%
Granzyme B^+ CTL cells (CD45^+ CD8^+GrB+) Cell count (×10^5) (G3: 1 mg/kg, individual mice): 11.76 ×10^5 and 39.25 ×10^5 and 20.44 ×10^5 and 21.59 ×10^5 and 31.75 ×10^5 and 14.00 ×10^5
Granzyme B^+ CTL cells (CD45^+ CD8^+GrB+) Total % (G3: 1 mg/kg, individual mice): 40.55% and 31.10% and 28.95% and 21.85% and 17.29%
IFN-γ^+ CTL cells (CD45^+ CD8^+ IFN-γ^+) CTL Gated % (G3: 1 mg/kg, individual mice): 0.87% and 0.63% (2×) and 0.85% and 0.20% and 0.61%
IFN-γ^+ CTL cells (CD45^+ CD8^+ IFN-γ^+) Cell count (×10^5) (G3: 1 mg/kg, individual mice): 0.11 ×10^5 and 0.25 ×10^5 and 0.20 ×10^5 and 0.1 ×10^5 and 0.07 ×10^5 and 0.15 ×10^5
IFN-γ^+ CTL cells (CD45^+ CD8^+ IFN-γ^+) Total % (G3: 1 mg/kg, individual mice): 0.39% and 0.20% and 0.28% and 0.14% and 0.09% and 0.18%
PD-1^+ CTL cells (CD45^+CD8^+ PD-1^+) CTL Gated % (G3: 1 mg/kg, individual mice): 58.64% and 62.98% and 80.96% and 86.30% and 72.97% and 93.75%
PD-1^+ CTL cells (CD45^+CD8^+ PD-1^+) Cell count (×10^5) (G3: 1 mg/kg, individual mice): 7.44 ×10^5 and 25.38 ×10^5 and 17.68 ×10^5 and 19.51 ×10^5 and 23.37 ×10^5 and 21.66 ×10^5
PD-1^+ CTL cells (CD45^+CD8^+ PD-1^+) Total % (G3: 1 mg/kg, individual mice): 25.64% and 20.11% and 25.04% and 19.75% and 31.41% and 26.74%
